Data set [1] deals with UTI227. Particulars: for Outcome: UTI227. Here is the method:
CMI determination. Different channels were prepared simultaneously with the same cell suspension. Antibiotic was prepared at different concentrations (one channel contained only LB as a control) and added to channel just before image acquisition: each channel contain a different antibiotic concentration. A picture was taken every 2 or 3 minutes in each channel. At the end of the acquisition we determined if concentrations tested induced cell death or not.
(§1) Minimum inhibitory concentration. Several experiments were performed with different ETP concentrations added to UTI 227 cells.

In data set [2] the test system is UTI227. Briefly: CMI by Vitek. Type of data set: cell-based, Escherichia coli. The method, then:
as §1

The subject of data set [3] is UTI 687. Briefly: Antibiotic susceptibility from blood culture on chitosan χ1. Type of data set: cell-based, Escherichia coli. To be noted: UTI 687 grown in blood culture vial. Here is the method: Antibiotic susceptibility from blood culture. UTI 687 was cultivated in LB medium and then diluted to obtain a cell concentration close to the one find in blood during septicemia (final concentration: 5 CFU/ml). The suspension was then inoculated in culture vial for blood culture. After over-night culture (agitation, 37° C.), culture suspension was diluted in LB media for a final OD=0.01. Cells are then prepared as describe in material and method to determine cell susceptibility to ETP.
Antibiotic susceptibility from blood culture. […] These debris probably originate from blood culture media. However, it was possible to determine a CMI: CMIχ1≤1, which is coherent with the expected values.

The next data set concerns UTI 227. Briefly: Dose-dependent answer: time for cell death. In kind it is cell-based, Escherichia coli. Particulars: different concentrations. Here is the method:
(§2) Dose-dependent answer. Ertapenem (ETP) is an antibiotic used in the medical field in order to determine MIC. ETP was tested at different concentrations on UTI 227 and for each cell observed, the time for cell death was quantified (FIGS. 7B and 7C). […] Similarly, UTI 687 was contacted with different concentration of mecillinam (MEC), and the cell width was quantified.

For a further data set, the system named is UTI 687 cells. Briefly: Cell death detection with propidium iodide stain on chitosan χ1. Particulars: 3 mg/L, 50 μL/mL of PI. In kind it is cell-based, Escherichia coli. The method, then:
Following the protocol described in material and methods, UTI 687 cells were contacted with chitosan χ1 surface. Before acquisition, channel was rinsed with LB supplemented with 3 mg/L of ETP and 50 μL/mL of PI (FIG. 11B).

For the next data set, the system named is K12 cells. Particulars: K12 on commercial chitosan; 50 μL/mL PI; after 30 seconds. Here is the method: Propidium iodide (PI) is used as a DNA stain which cannot cross the membrane of live cells, making it useful to differentiate dead, dying and healthy cells. K12 cells were immobilized to commercial chitosan on microfluidic chamber (channels in PDMS) in presence or absence of EtOH 70%. Channels were rinsed with LB, 50 μL/mL PI.

Data set [4] concerns UTI698. The data set is described as follows: CMI (MIC) determination on chitosan χ1 channels. In kind it is cell-based, Escherichia coli. The text has this: (§3) For each conditions, a similar result was obtained.
Data set [5] relates to UTI704. The data set is described as follows: CMI (MIC) determination on chitosan χ1 channels. Type of data set: cell-based, Escherichia coli.
Excerpt: as §3

Data set [6] relates to UTI698. The data set is described as follows: CMI by Vitek. Type of data set: cell-based, Escherichia coli.
Excerpt: as §3

The subject of data set [7] is UTI704. Briefly: CMI by Vitek. Type of data set: cell-based, Escherichia coli.
Excerpt: as §3

The subject of data set [8] is UTI 687. The data set is described as follows: Dose-dependent answer: cell width. In kind it is cell-based, Escherichia coli. To be noted: 2 mg/L, after 1 hour of contact. The method, then:
as §2

Data set [9] has as its system UTI687. Briefly: CMI (MIC) determination on chitosan χ1 channels. Type of data set: cell-based, Escherichia coli.
Excerpt: as §3

The subject of data set [10] is UTI687. The data set is described as follows: CMI by Vitek. In kind it is cell-based, Escherichia coli.
Excerpt: as §3

A further data set has as its system K12. The data set is described as follows: Visualization of antibiotics susceptibility. Type of data set: cell-based, Escherichia coli. The method, then:
Visualization of antibiotics susceptibility. Two channels were prepared with K12, identically. Before starting picture acquisition, one channel was rinsed with LB media, the other one with LB media supplemented with 100 μg/ml of ampicillin. […] Morphological changes were observed earlier than 1 hour and cell death imaged by lysis occurred right after 2 hours of incubation.

[11] abbreviates: concentration 1 (head mg/ml, title mg/L).
Where [12] appears, read: concentration 2 (head mg/ml, title mg/L).
The mark [13] stands for this setting: concentration 0.25 (head mg/ml, title mg/L).
[14] abbreviates: concentration 0.5 (head mg/ml, title mg/L).

Where two headings read alike, the source gives them in different places.

For `C[C@@H](O)[C@H]1C(=O)N2C(C(=O)O)=C(S[C@@H]3CN[C@H](C(=O)Nc4cccc(C(=O)O)c4)C3)[C@H](C)[C@H]12` [Ertapenem], the “Concentration above which a cytotoxic effect was observed” value with UTI227 [1] was “above 0.01 mg/L”. Moreover, the Outcome entry with UTI227 [1] (concentration 0.01 (mg/L)) is listed as “Growth”; in the data set on UTI227 [1] (concentration 0.05 (mg/L)) it was “Death”; in the data set on UTI227 [1] (concentration 0.1 (mg/L)) it was “Death”; in the data set with UTI227 [1] (concentration 0.125 (mg/L)), “Death”; with UTI227 [1] (concentration 0.25 (mg/L)), “Death”; with UTI227 [1] (concentration 0.5 (mg/L)) it was “Death”. The Outcome result in the data set with UTI227 [1] (concentration 0.75 (mg/L)) is on record as “Death”. For the same molecule, the “CMI (Vitek)” value in the data set on UTI227 [2] and in the data set with UTI227 [2] (listed as ETP) was at most 0.5 mg/L each time. The same molecule registered a CMIχ1 in the data set on UTI 687 [3] of at most 1. Further, the “Time for cell death according to concentration” value in the data set with UTI 227 was “significantly faster for a higher concentration”. For the same molecule, in the data set on UTI 687 cells, the “Propidium iodide staining of cells” value is “some cells turned in red”.

For `CCO` [EtOH 70%, EtOH], in the data set on K12 cells, the “Propidium iodide fluorescence of cells” value is “all the cells incubated with EtOH were fluorescent”.

Regarding `CC1(C)S[C@@H]2[C@H](/N=C/N3CCCCCC3)C(=O)N2[C@H]1C(=O)O` [Mecillinam, mecillinam], the Outcome result with UTI227 [1] (concentration 4 (mg/L)) was “Growth”; in the data set with UTI227 [1] (concentration 8 (mg/L)) it was “Death”; with UTI227 [1] (concentration 12 (mg/L)), “Death”; in the data set with UTI227 [1] (concentration 16 (mg/L)), “Death”; in the data set on UTI698 [4] (setting [11]), “Death”; in the data set with UTI698 [4] (setting [12]), “Death”. Moreover, the Outcome result with UTI698 [4] (concentration 5 (head mg/ml, title mg/L)) is given as “Death”; with UTI704 [5] (setting [13]) it was “Growth”; with UTI704 [5] (setting [14]), “Growth”; in the data set with UTI704 [5] (setting [11]), “Growth”; in the data set with UTI704 [5] (setting [12]) it was “Death”. Further, the “CMI (measured)” value in the data set on UTI698 [4] (chitosan χ1) is given as at most 1 mg/L; in the data set with UTI704 [5] (chitosan χ1) it was at most 2 mg/L. Moreover, the “CMI (Vitek)” value is 8 mg/L with UTI227 [2], at most 1 mg/L in the data set on UTI698 [6] and 2 mg/L with UTI704 [7]. Besides, the Cell width result with UTI 687 [8] is “An augmentation was observed”.

Regarding `CC1COc2c(N3CCN(C)CC3)c(F)cc3c(=O)c(C(=O)O)cn1c23` (stereo not shown) [Ofloxacin, ofloxacin], the “CMI (measured)” value in the data set with UTI687 [9] (chitosan χ1) was at most 0.25 mg/L. Also, the Outcome entry in the data set with UTI687 [9] (setting [13]), with UTI687 [9] (setting [14]), with UTI687 [9] (setting [11]) and in the data set with UTI687 [9] (setting [12]) was “Death” each time. In addition, the “CMI (Vitek)” value in the data set with UTI687 [10] came out at 0.5 mg/L.

For `CC1(C)S[C@@H]2[C@H](NC(=O)[C@H](N)c3ccccc3)C(=O)N2[C@H]1C(=O)O` [ampicillin], the “Time at which morphological changes were observed” value in the data set on K12 (100 μg/ml) is reported as under 1 hour. Besides, in the data set with K12 (100 μg/ml, incubation), the “Time of cell death imaged by lysis” value is about 2 h. In addition, the “Effect on cells (in words)” value with K12 (LB supplemented with 100 μg/ml) is reported as “cells extended but did not divide”.

The values are drawn from patent US20210215694A1, “FILM OF CHITOSAN AND A DEVICE COMPRISING THE SAME DEPOSITED ON A SUBSTRATE AND USES THEREOF” (priority 2018, published 2021).
